The assay deals with T1, SHP2 (residues 224-528) (Homo sapiens, UniProt Q06124).
T1 construct: 4× solution of SHP2 (residues 224-528)
T1 sequence (Q06124 224-528): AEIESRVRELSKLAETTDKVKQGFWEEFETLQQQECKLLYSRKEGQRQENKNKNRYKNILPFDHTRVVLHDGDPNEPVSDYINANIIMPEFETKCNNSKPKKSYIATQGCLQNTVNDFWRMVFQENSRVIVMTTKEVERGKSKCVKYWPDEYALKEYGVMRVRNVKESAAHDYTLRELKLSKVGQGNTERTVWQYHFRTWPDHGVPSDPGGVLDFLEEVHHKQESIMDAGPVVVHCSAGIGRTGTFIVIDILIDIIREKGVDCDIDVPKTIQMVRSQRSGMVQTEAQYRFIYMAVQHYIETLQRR
The assay is described as follows: Kinetic characterization of SHP2 inactivation (pNPP cleavage progress curves, kobs, kinact/KI). As to conditions: pH 7, role: inhibitor; substrate pNPP 3 mM, 100 nM SHP2, pH 7.0, 25° C; read-out: kinact/KI (converted). The assay is classed as biochemical. An excerpt:
Covalent inhibitors work by forming a covalent bond with a reactive functional group in the target enzyme. Consequently, the kinetics for enzyme inactivation by a covalent inhibitor is not an equilibrium process as with reversible inhibition. The potency of a reversible inhibitor can be measured by its IC50 value. Unlike reversible inhibitors, where inhibition is only concentration-dependent, covalent inhibitors show both time- and concentration-dependent target inhibition (a covalent bond formation is a time-dependent event). If sufficient time is available, covalent inhibitors can completely neutralize the target, rather than go to equilibrium. As a result, the potency and selectivity of a covalent inhibitor cannot be determined by IC50 values; instead, the rate of inactivation of the target (kinact) and the inhibition constant (KI) were determined. The bimolecular rate constant (kinact/KI), was chosen to rank the potency of covalent inhibitors (Ruddraraju et al., 2017, Molecular Biosystems 13(7), 1257-1279).
PTPs catalyze the dephosphorylation of tyrosine-phosphorylated protein substrates through a conserved mechanism that relies on a catalytic cysteine residue (Zhang, Z.-Y et al., 2003, Prog. Nucleic Acid Research Molecular Biology, 73, 171-220). This provides a mechanistic rationale for the assessment of electrophilic Michael acceptors, such as those synthesized in the present disclosure as potential covalent inhibitors of the SHP2. The enzymatic cleavage of para-nitrophenyl phosphate by SHP2 was measured over time in the presence of 100 μM inhibitor or DMSO, to determine the observed first-order rate constant (kobs). Based on kobs values, compounds were further evaluated in a dose-dependent manner to determine the second-order rate constant (kinact/KI) indicating the overall efficacy of the compounds, which was used to assess the structure-activity relationship (SAR) for the analogs of interest and design additional analogs (see Table 1). […] It has been known that modifications to the electronegativity of substituents proximal to electrophilic centers alter the reactivity of the electrophile.
The efficacy of covalent inhibitors can be broken down into the initial reversible binding of the compounds (KI), and the rate of covalent bond formation and enzyme inactivation (kinact). These two constants can be used individually, or as a ratio to determine the overall efficacy of the inhibitor's efficacy. To investigate the contribution to reversible binding compound (34) was evaluated, which lacks the carbonyl of the Michael acceptor to prevent the formation of a covalent adduct.
Inhibitors were evaluated for their ability to inhibit the reaction catalyzed by SHP2 using para-nitrophenyl phosphate (pNPP) as a substrate at pH 7 and 25° C. A 2× solution of inhibitor was diluted into DMG buffer (50 mM 3,3-dimethylglutarate pH 7.0, 1 mM EDTA, ionic strength adjusted to 150 mM using NaCl) was added to a clear flat-bottom 96-well plate (Corning Costar Assay Plate #9017), and serially diluted 1.5-fold, resulting in 100 μL volumes of varying inhibitor concentrations. To this was added a 4× solution of pNPP (12 mM) in DMG buffer. The reaction was initialized by the addition of a 4× solution of SHP2 (residues 224-528), resulting in a final solution of: inhibitor (100-0 μM), pNPP (3 mM), and SHP2 (100 nM). The plate was then monitored for a change in absorbance ab […] using a CLARIOstar^Plus plate reader (BMG Labetch) over the course of an hour. The resulting progress curves for each inhibitor were imported into Graphpad Prism 9 (GraphPad Software, San Diego, CA (USA)), and a baseline correction analysis was completed for fitting purposes. Each curve was fit to the equation Y=V0×(1−e^−kobs*t)/kobs.^[17.22] The kobs values were then plotted against inhibitor concentrations. If the resulting graph was linear, the kinact/KI value was determined by the slope of that line and the 95% confidence interval (95% CI). […]

These results are taken from US20260327239A1, “COMPOUNDS FOR COVALENT INHIBITION OF SHP2” (Purdue Research Foundation, priority 2023, published 2026).

SMILES strings stand for the structures.

As for `C=C1C(=O)[C@@]2(C(=O)N3CCN(c4ccc(I)cc4)CC3)CC(=O)C[C@@H]1C2` [Compound 37], the kinact/KI was 396 M⁻¹ s⁻¹.
